Patent publication US20090082314A1, “Targeting Prodrugs for the Treatment of Gastrointestinal Diseases” (The Provost Fellows and Scholars of the College of the, priority 2007, published 2009)

Experiments:
thymus = assay: Systemic side effects: thymus weight to body weight ratio in DSS-induced colitis mice; assay type: in vivo, BALB/c mice; conditions: for T/BW ratio (thymus weight:body weight) versus vehicle-treated mice: 5 mg/Kg oral twice a day, 5% DSS, FIG. 18, one-way ANOVA with Tukey post test
Procedure: The DSS induced colitis mice weighting about 18-20 grams were allowed 5% DSS water ad libitum and 100 μL of prednisolone and prodrug 2 in 1% solution cremophor and ethanol in water suspension (equivalent to 5 mg of prednisolone per Kg or mouse body weight) was orally administrated, twice a day (every twelve hours) to the colitis mice. Six days after the prednisolone and prodrugs treatments, the mice were sacrificed by cervical dislocation. The distal colon segment and the thymus were removed and washed to remove contents of the colon. One centimetre of the distal colon segment and the fresh weight of the thymus were measured to obtain the ratios of distal colon weight and thymus weight to body weight (C/B and T/B respectively). The damage of the colon specimens were scored as describe in materials and methods. The distal segments were frozen by liquid nitrogen kept at −80° C. until assayed for myeloperoxidase activity (MPO). Systemic side effects were study by comparison of the thymus weight and body weight ratio (Hideki Yano 2002) between health mice, untreated mice, prednisolone treated mice and prodrug treated mice, due to the fact that an increase on the concentration of steroid in the bloodstream provokes suppression on the activity of the thymus and the consequent reduction of its weight.

DSS-induced colitis mice = assay: Drug efficacy in DSS-induced colitis mice (body weight loss, DAI, colon length); assay type: in vivo, BALB/c mice; conditions: for body weight loss versus vehicle only controls / severity of disease (DAI score) versus vehicle alone / colon shortening versus vehicle alone: 5 mg/Kg oral twice a day, 5% DSS; for body weight loss versus vehicle only controls: FIG. 15, one-way ANOVA with Tukey post test; for severity of disease (DAI score) versus vehicle alone: FIG. 16, one-way ANOVA with Tukey post test; for colon shortening versus vehicle alone: FIG. 17, one-way ANOVA with Tukey post test
Procedure: BALB/c strain mice were from the Bioresources Unit (Trinity College Dublin). Mice were housed in individually ventilated and filtered cages under positive pressure (Tecniplast, Nothants, UK). Food and water were supplied ad libitum. All animal experiments were performed in compliance with Irish Department of Health and Children regulations and approved by the Trinity College Bioresources ethical review board.
All in vivo experiments were performed with six mice per group. […] Colitis scores were analyzed by Mann-Whitney test. P values <0.05 were considered significant. Results on the DIA, C/B and T/B MPO were expressed as means±S.E.
DSS ([…]; MP Biomedicals, OH) was dissolved in the drinking water of the mice. Fresh DSS solution was provided every second day. BALB/c mice were exposed to 5% DSS for six days. The mice were checked every day for morbidity and weight recorded. Induction of colitis was determined by weight loss, fecal blood and, upon autopsy, length of colon. Blood in feces was detected using a Hemdetect occult blood detection kit (Dipro, Austria).
To quantify induction of colitis, a disease activity index (DAI) was determined based on previous studies of DSS-induced colitis (Cooper 1993). DAI was calculated for each mouse daily based on body weight loss, occult blood and stool consistency/diarrhea. A score of […] was given for each parameter, with a maximum DAI score of 12. Score 0, No weight loss, normal stool, no blood; Score 1, 1-3% weight loss; Score 2, 3-6% weight loss, loose stool, blood visible in stool; Score 3, 6-9% weight loss; Score 4, […]. Loose stool was defined as the formation of a stool that readily becomes paste upon handling. Diarrhea was defined as no stool formation. Gross bleeding was defined as fresh blood on fur around the anus with extensive blood in the stool,
At autopsy the length of the colon was measured and a 1 cm section of colon was fixed in 10% formaldehyde-saline. H&E-stained sections were grading based on a scoring system modified from a previous study (Siegmund 2001). Histology scoring was performed in a blinded fashion. A combined score of inflammatory cell infiltration and tissue damage was determined as follows: Cell infiltration: Score 0, Occasional inflammatory cells in the LP; 1, Increased infiltrate in the LP predominantly at the base of crypts; 2, Confluence of inflammatory infiltrate extending into the mucosa; 3, Trans-mural extension of infiltrate. Tissue Damage Score 0, No mucosal damage; 1, Partial (up to 50%) loss of crypts in large areas; 2, Partial to total 50-100% loss of crypts in large areas, epithelium intact; 3, Total loss of crypts in large areas and epithelium lost.
The DSS induced colitis mice weighting about 18-20 grams were allowed 5% DSS water ad libitum and 100 μL of prednisolone and prodrug 2 in 1% solution cremophor and ethanol in water suspension (equivalent to 5 mg of prednisolone per Kg or mouse body weight) was orally administrated, twice a day (every twelve hours) to the colitis mice. Six days after the prednisolone and prodrugs treatments, the mice were sacrificed by cervical dislocation. The distal colon segment and the thymus were removed and washed to remove contents of the colon.
One centimetre of the distal colon segment and the fresh weight of the thymus were measured to obtain the ratios of distal colon weight and thymus weight to body weight (C/B and T/B respectively). The damage of the colon specimens were scored as describe in materials and methods. The distal segments were frozen by liquid nitrogen kept at −80° C. until assayed for myeloperoxidase activity (MPO).
Anti-inflammatory effects were studied by comparison of the distal colon length between healthy mice, untreated mice, prednisolone treated mice and prodrug treated mice. IBD causes shortering of the colon. […]

[1] = rat intestinal perfusate; cited from earlier work
[2] = after 24 h at pH 7 (45° C.); cited from earlier work
[3] = neutrality, 39° C.; cited from earlier work
[4] = Intramolecular lactamization (cyclization) kinetics of amino prodrugs in aqueous solution, HPLC; assay type: physicochemical; conditions: 37° C., pH not given, read-out: calculated half-life of lactamization (T1/2=0.693/kobs) (converted)
Procedure: Release of steroid in vivo from the prodrugs hinges upon the cyclization of the amino steroid product of azo-reductase activity. The cyclization rates of the amino derivatives of cortisone A and B were monitored in aqueous solution at various pH values and at 37° C. by measuring remaining compound by HPLC along with the evolution of cortisone.
The first order rate constant for disappearance can be obtained from a plot of the natural log of remaining ester versus time. The half-life can be calculated (T1/2=0.693/kobs).

[5] = 5 mg/Kg, Student's t-test, original analysis

CC12C=CC(=O)C=C1CCC1C2C(O)CC2(C)C1CCC2(O)C(=O)COC(=O)CCc1ccccc1/N=N/c1ccc(O)c(C(=O)O)c1 (stereo not drawn) [Mutual Prodrug 2, 5-(2-{2[2-(11,17-dihydroxy-10,13-dimethyl-10,13-dimethyl-3-oxo-6,7,8,9,10,11,12,13,14,15,16,17-dodecahydro-3H-cyclopenta[a]phenanthrene-17-yl)-2-oxo-ethoxycarbonyl]ethyl}-phenylazo}-2-hydroxy-benzoic acid]
T/BW ratio (thymus weight:body weight) versus vehicle-treated mice (thymus): not statistically different
body weight loss versus vehicle only controls (DSS-induced colitis mice): weight loss was decreased
severity of disease (DAI score) versus vehicle alone (DSS-induced colitis mice): significantly reduced
colon shortening versus vehicle alone (DSS-induced colitis mice): significantly less shortening
colon length (DSS-induced colitis mice; [5]): significantly longer colon than the PRED

C[C@]12C=CC(=O)C=C1CC[C@@H]1[C@@H]2[C@@H](O)C[C@@]2(C)[C@H]1CC[C@]2(O)C(=O)CO [Prednisolone]
T/BW ratio (thymus weight:body weight) versus vehicle-treated mice (thymus): significant reduction in T/BW ratio
thymus:BW ratio versus Untreated mice (thymus; [5]): significant reduction in thymus:BW ratio
body weight loss versus vehicle only controls (DSS-induced colitis mice): weight loss was decreased
severity of disease (DAI score) versus vehicle alone (DSS-induced colitis mice): significantly reduced
colon shortening versus vehicle alone (DSS-induced colitis mice): significantly less shortening

C[C@]12CCC(=O)C=C1CC[C@@H]1[C@@H]2[C@@H](O)C[C@@]2(C)[C@H]1CC[C@]2(O)C(=O)COC(=O)CCC(=O)O [hydrocortisone-21-succinate]
first-order rate constant for hydrolysis [1]: 0.003 min⁻¹
disappearance [2]: less than 5%

COC(=O)CCc1ccccc1N [methyl 3-(2-aminophenyl)propionate]
apparent first-order rate constant of spontaneous cyclization [3]: 0.0002 s⁻¹

CC12CCC(=O)C=C1CCC1C2C(O)CC2(C)C1CCC2(O)C(=O)COC(=O)Cc1ccccc1N (stereo not drawn) [prodrug A]
half-life [4]: 2.2 h

CC12CCC(=O)C=C1CCC1C2C(O)CC2(C)C1CCC2(O)C(=O)COC(=O)CCc1ccccc1N (stereo not drawn) [prodrug B]
half-life [4]: 1.4 h
